Assay results: ChEMBL document CHEMBL4819133, “Exploiting the HSP60/10 chaperonin system as a chemotherapeutic target for colorectal cancer” (Bioorg Med Chem, 2021)
pEC50, pIC50: −log10 of the molar value. Activity calls are given as the source filed them. The calls are words filed in the database; no cut-off is given here.

Key:
HT-29 [1] = assay: Inhibition of clonogenicity in human HT-29 cells assessed as reduction in number of colony formation incubated for 72 hrs followed by culturing in fresh compound-free medium for 7 days by crystal violet staining based analysis; assay type: functional, cell-based
HT-29 [2] = assay: Inhibition of clonogenicity in human HT-29 cells assessed as reduction in colony formation at 50 uM incubated for 72 hrs followed by culturing in fresh compound-free medium for 7 days by crystal violet staining based analysis; assay type: functional
HSP60/HSP10 = HSP60/HSP10 (Homo sapiens, UniProt P10809); assay: Inhibition of human mitochondrial HSP60/10-mediated refolding of the denatured malate dehydrogenase; assay type: mitochondria, Mitochondria
Sequence of HSP60/HSP10 (P10809 whole entry): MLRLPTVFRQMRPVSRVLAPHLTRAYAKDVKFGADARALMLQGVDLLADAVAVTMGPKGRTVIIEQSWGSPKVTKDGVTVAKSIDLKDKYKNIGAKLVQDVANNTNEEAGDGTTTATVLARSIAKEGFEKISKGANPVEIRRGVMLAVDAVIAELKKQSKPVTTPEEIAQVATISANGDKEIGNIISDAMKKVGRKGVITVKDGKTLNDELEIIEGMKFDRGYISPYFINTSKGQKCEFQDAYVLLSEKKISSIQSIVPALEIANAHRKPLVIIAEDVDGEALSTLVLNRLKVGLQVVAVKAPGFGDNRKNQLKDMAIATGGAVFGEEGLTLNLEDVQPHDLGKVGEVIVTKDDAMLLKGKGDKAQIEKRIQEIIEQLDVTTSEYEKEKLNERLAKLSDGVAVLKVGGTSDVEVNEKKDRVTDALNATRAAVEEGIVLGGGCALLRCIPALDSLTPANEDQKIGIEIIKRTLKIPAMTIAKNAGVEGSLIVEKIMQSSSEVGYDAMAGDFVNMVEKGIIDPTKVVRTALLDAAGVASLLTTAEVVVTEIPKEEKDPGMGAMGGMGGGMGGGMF
Sequence of HSP60/HSP10 (P61604 whole entry, further chain): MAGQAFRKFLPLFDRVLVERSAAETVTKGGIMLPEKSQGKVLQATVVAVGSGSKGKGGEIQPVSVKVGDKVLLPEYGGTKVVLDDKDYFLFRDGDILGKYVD

E. coli GroEL/ES [3] = biological target: T1, E. coli GroEL/ES (Escherichia coli, UniProt P0A6F5); assay: Inhibition of Escherichia coli GroEL/ES-mediated refolding of the denatured malate dehydrogenase; assay type: protein-complex assay
T1 sequence (P0A6F5 whole entry, looked up): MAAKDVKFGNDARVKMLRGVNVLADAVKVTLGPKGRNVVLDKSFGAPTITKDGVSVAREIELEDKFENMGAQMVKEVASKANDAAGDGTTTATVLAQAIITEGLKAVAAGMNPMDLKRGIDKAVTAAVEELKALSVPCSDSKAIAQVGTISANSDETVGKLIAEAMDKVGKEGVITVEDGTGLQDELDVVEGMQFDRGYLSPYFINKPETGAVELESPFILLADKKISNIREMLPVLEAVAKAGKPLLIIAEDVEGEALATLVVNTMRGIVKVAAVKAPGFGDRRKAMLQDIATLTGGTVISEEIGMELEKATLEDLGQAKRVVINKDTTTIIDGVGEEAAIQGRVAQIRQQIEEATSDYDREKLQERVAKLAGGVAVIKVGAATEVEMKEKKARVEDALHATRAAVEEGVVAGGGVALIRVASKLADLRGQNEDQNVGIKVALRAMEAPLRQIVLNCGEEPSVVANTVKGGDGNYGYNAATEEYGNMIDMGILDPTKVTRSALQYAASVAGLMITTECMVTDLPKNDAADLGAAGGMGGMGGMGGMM

HT-29 [4] = assay: Inhibition of clonogenicity in human HT-29 cells assessed as reduction in size of colony incubated for 72 hrs followed by culturing in fresh compound-free medium for 7 days by crystal violet staining based analysis; assay type: functional, cell-based
HCT-116 [5] = assay: Inhibition of clonogenicity in human HCT-116 cells assessed as reduction in colony formation at 50 uM incubated for 72 hrs followed by culturing in fresh compound-free medium for 7 days by crystal violet staining based analysis; assay type: functional
HCT-116 [6] = assay: Cytotoxicity against human HCT-116 cells assessed as reduction in cell viability measured after 48 hrs by AlamarBlue assay; assay type: functional, cell-based; settings: HCT-116, 48 h
HCT-116 [7] = assay: Inhibition of clonogenicity in human HCT-116 cells assessed as reduction in number of colony formation incubated for 72 hrs followed by culturing in fresh compound-free medium for 7 days by crystal violet staining based analysis; assay type: functional, cell-based
FHC = assay: Cytotoxicity against human FHC cells assessed as reduction in cell viability measured after 48 hrs by AlamarBlue assay; assay type: cell-based
HCT-116 [8] = assay: Inhibition of cell migration in human HCT-116 cells measured at 72 hrs by scratch wound healing assay based phase contrast microscopy; assay type: functional; settings: HCT-116, 72 h
HEK293 = assay: (§1) Cytotoxicity against human HEK293 cells assessed as reduction in cell viability measured after 48 hrs by AlamarBlue assay; assay type: cell-based; settings: hek293, 48 h
HCT-116 [9] = assay: Inhibition of clonogenicity in human HCT-116 cells assessed as reduction in size of colony incubated for 72 hrs followed by culturing in fresh compound-free medium for 7 days by crystal violet staining based analysis; assay type: functional, cell-based
HCT-116 [10] = assay: Induction of apoptosis in human HCT-116 cells assessed as compact cell monolayer at 100 uM measured for 72 hrs by phase contrast microscopy; assay type: functional, cell-based
[11] = Cytotoxicity against human FHs74Int cells assessed as reduction in cell viability measured after 48 hrs by AlamarBlue assay; assay type: cell-based
[12] = Cytotoxicity against human THLE-3 cells assessed as reduction in cell viability measured after 48 hrs by AlamarBlue assay; assay type: cell-based; settings: for CC50: thle-3, 48 h; for CC50 at 48 h: THLE-3 cells
DLD-1 [13] = assay: Inhibition of clonogenicity in human DLD-1 cells assessed as reduction in number of colony formation incubated for 72 hrs followed by culturing in fresh compound-free medium for 7 days by crystal violet staining based analysis; assay type: functional, cell-based
HCT-116 [14] = assay: Cytostatic activity in human HCT-116 cells assessed as viable cells at 100 uM incubated for 48 hrs by AnnexinV/PI staining based flow cytometry; assay type: functional, cell-based
DLD-1 [15] = assay: Inhibition of clonogenicity in human DLD-1 cells assessed as reduction in colony formation at 50 uM incubated for 72 hrs followed by culturing in fresh compound-free medium for 7 days by crystal violet staining based analysis; assay type: functional
E. coli GroEL/ES [16] = biological target: T1, E. coli GroEL/ES; assay: Inhibition of Escherichia coli GroEL/ES-mediated refolding of the denatured rhodanese; assay type: protein-complex assay
HCT-116 [17] = assay: Inhibition of cell migration in human HCT-116 cells at 0.14 to 100 uM measured for 72 hrs by scratch wound healing assay based phase contrast microscopy; assay type: functional; settings: dose 0.14-100 µM
[18] = Inhibition of refolded MDH (unknown origin)-mediated oxidation of NADPH in presence of mesoxalic acid treated with compound after refolding of the denatured enzyme; set-up: species or system Homo sapiens
DLD-1 [19] = assay: Inhibition of clonogenicity in human DLD-1 cells assessed as reduction in size of colony incubated for 72 hrs followed by culturing in fresh compound-free medium for 7 days by crystal violet staining based analysis; assay type: functional, cell-based
[20] = biological target: T2, Thiosulfate sulfurtransferase (Homo sapiens, UniProt Q16762); assay: Inhibition of refolded Rhodanese (unknown origin)-mediated conversion of cyanide to thiocyanate treated with compound after refolding of the denatured enzyme
T2 sequence (Q16762 whole entry): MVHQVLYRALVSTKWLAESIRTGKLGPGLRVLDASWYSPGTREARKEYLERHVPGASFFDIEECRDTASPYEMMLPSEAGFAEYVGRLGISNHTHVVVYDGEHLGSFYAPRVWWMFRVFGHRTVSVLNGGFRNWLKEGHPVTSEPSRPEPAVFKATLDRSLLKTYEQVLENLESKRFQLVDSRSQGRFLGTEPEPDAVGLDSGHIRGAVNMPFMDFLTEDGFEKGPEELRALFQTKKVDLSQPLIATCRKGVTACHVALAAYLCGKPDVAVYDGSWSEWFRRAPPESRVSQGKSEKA

DLD-1 [21] = assay: Cytotoxicity against human DLD-1 cells assessed as reduction in cell viability measured after 48 hrs by AlamarBlue assay; assay type: functional, cell-based; settings: DLD-1, 48 h
HT-29 [22] = assay: Cytotoxicity against human HT-29 cells assessed as reduction in cell viability measured after 48 hrs by AlamarBlue assay; assay type: functional, cell-based; settings: HT-29, 48 h
HCT-116 [23] = assay: Induction of cell death in human HCT-116 cells assessed as loss of cell monolayer integrity and cytoplasm extrusion at 100 uM measured for 72 hrs by phase contrast microscopy; assay type: functional, cell-based
[24] = as §1; assay type: cell-based; settings: HEK293 cells
HCT-116 [25] = assay: Induction of apoptosis in human HCT-116 cells at 100 uM incubated for 48 hrs by AnnexinV-FITC/PI staining based flow cytometry; assay type: functional, cell-based
HCT-116 [26] = assay: Inhibition of cell migration in human HCT-116 cells at 10 uM measured at >=20 hrs by scratch wound healing assay based phase contrast microscopy; assay type: functional; settings: time hrs >=20

SMILES | pEC50 (HT-29 [1]) | pIC50 (HSP60/HSP10) | pIC50 (E. coli GroEL/ES [3]) | pEC50 (HT-29 [4]) | pEC50 (HCT-116 [6]) | pEC50 (HCT-116 [7]) | CC50 (FHC) | pEC50 (HCT-116 [8]) | pEC50 (HCT-116 [9]) | CC50 [11] | pEC50 (DLD-1 [13]) | pIC50 (E. coli GroEL/ES [16]) | pIC50 [18] | pEC50 (DLD-1 [19]) | pIC50 [20] | pEC50 (DLD-1 [21]) | pEC50 (HT-29 [22]) | inhibition (HT-29 [1]) | inhibition at 50 µM (HT-29 [2]) | Activity (HCT-116 [23]) | other results
COc1ccc(S(=O)(=O)Nc2ccc3oc(-c4ccc(NC(=O)c5cccc(C)c5[N+](=O)[O-])cc4)nc3c2)cc1 | 4.59 | 4.14 | 4.48 | 5.70 | 5.36 | 4.72 | > 100 µM | 5.64 | 5.59 | > 100 µM | < 4.30 | 4.55 | < 4.20 | 5.80 | < 4.00 | 5.82 |  |  |  |  | inhibition (HT-29 [2]): Active; inhibition (HCT-116 [5]): Active; CC50 (HEK293): 12 µM; Activity (HCT-116 [10]): inactive; CC50 [12]: 22 µM; Activity (HCT-116 [14]): Active; inhibition (DLD-1 [15]): Active; inhibition (HCT-116 [17]): Active
COc1ccc(S(=O)(=O)Nc2ccc3oc(-c4ccc(NC(=O)c5ccc(Cl)s5)cc4)nc3c2)cc1 | 5.64 | 4.21 | 4.74 | 6.15 | 5.27 | 5.57 | > 100 µM | 5.24 | 5.96 | > 100 µM | < 4.30 | 4.82 | < 4.20 | 4.96 | < 4.00 | 5.34 | 5.72 |  |  |  | inhibition (HT-29 [2]): Active; inhibition (HCT-116 [5]): Active; CC50 (HEK293): 15 µM; Activity (HCT-116 [10]): inactive; CC50 [12]: 57 µM; Activity (HCT-116 [14]): Active; inhibition (DLD-1 [15]): Active; inhibition (HCT-116 [17]): Active
O=C(Nc1ccc(Sc2nc3ccccc3s2)c(Cl)c1)c1cccc(Br)c1O | 4.49 | 5.11 | 5.00 | 4.92 | 4.92 | 4.77 | > 100 µM | 5.70 | 5.04 | > 100 µM | 4.68 | 5.23 | < 4.20 | 4.96 |  | 4.66 | 4.70 | Dose-Dependent Effect | 100% | Active | inhibition (HT-29 [4]): Dose-Dependent Effect; inhibition at 50 µM (HCT-116 [5]): 100%; inhibition (HCT-116 [7]): Dose-Dependent Effect; CC50 at 48 h [24]: 68 µM; inhibition (HCT-116 [9]): Dose-Dependent Effect; Activity (HCT-116 [25]): Active; inhibition (HCT-116 [26]): Active; CC50 at 48 h [12]: 18 µM; inhibition (DLD-1 [13]): Dose-Dependent Effect; inhibition at 50 µM (DLD-1 [15]): 100%; inhibition (DLD-1 [19]): Dose-Dependent Effect
COc1c(Br)cccc1C(=O)Nc1ccc(Sc2nc3ccccc3s2)c(Cl)c1 | 4.57 |  | 4.43 | 4.89 | 5.07 | 4.96 | > 100 µM | 5.26 | 4.92 | > 100 µM | 4.96 | 4.80 | < 4.20 | 5.00 |  | 5.00 | 4.96 | Dose-Dependent Effect | 100% | Active | inhibition (HT-29 [4]): Dose-Dependent Effect; inhibition at 50 µM (HCT-116 [5]): 100%; inhibition (HCT-116 [7]): Dose-Dependent Effect; CC50 at 48 h [24]: 40 µM; inhibition (HCT-116 [9]): Dose-Dependent Effect; Activity (HCT-116 [25]): Active; inhibition (HCT-116 [26]): Active; CC50 at 48 h [12]: 14 µM; inhibition (DLD-1 [13]): Dose-Dependent Effect; inhibition at 50 µM (DLD-1 [15]): 100%; inhibition (DLD-1 [19]): Dose-Dependent Effect
Cc1ccc(S(=O)(=O)Nc2ccc(-c3nc4cc(NS(=O)(=O)c5ccc(C)cc5)ccc4o3)cc2)cc1 | 4.89 | < 4.00 | 4.57 | 5.00 | 5.23 | 4.85 | 51 µM | 5.05 | 4.82 | 74 µM | 4.80 | 4.52 | < 4.20 | 4.92 | < 4.00 | 4.89 | 4.96 | Dose-Dependent Effect | 100% | Active | inhibition (HT-29 [4]): Dose-Dependent Effect; inhibition at 50 µM (HCT-116 [5]): 100%; inhibition (HCT-116 [7]): Dose-Dependent Effect; CC50 at 48 h [24]: 32 µM; inhibition (HCT-116 [9]): Dose-Dependent Effect; Activity (HCT-116 [25]): Active; inhibition (HCT-116 [26]): Active; CC50 at 48 h [12]: 15 µM; inhibition (DLD-1 [13]): Dose-Dependent Effect; inhibition at 50 µM (DLD-1 [15]): 100%; inhibition (DLD-1 [19]): Dose-Dependent Effect
